Holding throughout (details): Compound concentration 10 µM
Assay [1] has as its target D(1A) dopamine receptor (Homo sapiens) (UniProt P21728).
Description: PDSP Primary Binding target: DRD1 - Compounds are tested at 10 uM concentration, plate are incubated at room temperature in the dark for 90 minutes. Reaction are stopped by vacuum filtration onto 0.3% polyethyleneimine soaked filter mats using Filtermate harvester. Scintilation cocktail is then melted onto microwave-dried filters on a hot plate and the radio activity is counted in Microbia counter.
The target of assay [2] is 5-hydroxytryptamine receptor 6 (Homo sapiens) (UniProt P50406).
Description: PDSP Primary Binding target: HTR6 - Compounds are tested at 10 uM concentration, plate are incubated at room temperature in the dark for 90 minutes. Reaction are stopped by vacuum filtration onto 0.3% polyethyleneimine soaked filter mats using Filtermate harvester. Scintilation cocktail is then melted onto microwave-dried filters on a hot plate and the radio activity is counted in Microbia counter.
Assay [3] addresses 5-hydroxytryptamine receptor 2A (Homo sapiens) (UniProt P28223).
Description: PDSP Primary Binding target: HTR2A - Compounds are tested at 10 uM concentration, plate are incubated at room temperature in the dark for 90 minutes. Reaction are stopped by vacuum filtration onto 0.3% polyethyleneimine soaked filter mats using Filtermate harvester. Scintilation cocktail is then melted onto microwave-dried filters on a hot plate and the radio activity is counted in Microbia counter.
Assay [4] concerns the target T1, 5-hydroxytryptamine receptor 3A (Homo sapiens) (UniProt P46098).
T1 sequence (whole entry): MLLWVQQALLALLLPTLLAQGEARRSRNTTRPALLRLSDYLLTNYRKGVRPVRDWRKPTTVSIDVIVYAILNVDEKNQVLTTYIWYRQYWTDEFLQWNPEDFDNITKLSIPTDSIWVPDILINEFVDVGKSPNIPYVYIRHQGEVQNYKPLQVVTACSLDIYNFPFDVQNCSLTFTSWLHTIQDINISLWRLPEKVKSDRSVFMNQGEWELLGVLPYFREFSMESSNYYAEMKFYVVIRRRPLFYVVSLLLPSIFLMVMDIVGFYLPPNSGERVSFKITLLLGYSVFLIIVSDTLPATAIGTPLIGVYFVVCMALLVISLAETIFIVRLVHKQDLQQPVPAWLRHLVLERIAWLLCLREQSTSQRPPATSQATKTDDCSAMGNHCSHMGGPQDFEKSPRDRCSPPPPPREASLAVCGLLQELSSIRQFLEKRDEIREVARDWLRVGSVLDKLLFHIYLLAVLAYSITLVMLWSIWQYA
Description: PDSP Primary Binding target: HTR3A - Compounds are tested at 10 uM concentration, plate are incubated at room temperature in the dark for 90 minutes. Reaction are stopped by vacuum filtration onto 0.3% polyethyleneimine soaked filter mats using Filtermate harvester. Scintilation cocktail is then melted onto microwave-dried filters on a hot plate and the radio activity is counted in Microbia counter.

In assay [5] the target is T2, Alpha-1A adrenergic receptor (Homo sapiens) (UniProt P35348).
T2 sequence (whole entry): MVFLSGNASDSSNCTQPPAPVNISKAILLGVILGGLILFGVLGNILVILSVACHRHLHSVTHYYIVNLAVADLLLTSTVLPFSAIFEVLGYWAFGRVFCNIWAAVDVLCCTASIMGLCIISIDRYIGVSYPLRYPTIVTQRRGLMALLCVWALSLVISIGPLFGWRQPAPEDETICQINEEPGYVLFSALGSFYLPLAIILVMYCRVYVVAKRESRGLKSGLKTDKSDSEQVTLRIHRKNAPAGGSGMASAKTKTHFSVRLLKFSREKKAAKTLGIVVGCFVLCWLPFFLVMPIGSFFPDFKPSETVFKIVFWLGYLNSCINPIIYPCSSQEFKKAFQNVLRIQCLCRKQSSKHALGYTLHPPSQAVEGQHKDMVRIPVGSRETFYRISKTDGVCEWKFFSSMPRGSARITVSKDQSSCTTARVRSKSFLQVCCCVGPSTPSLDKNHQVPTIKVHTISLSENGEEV
Description: PDSP Primary Binding target: ADRA1A - Compounds are tested at 10 uM concentration, plate are incubated at room temperature in the dark for 90 minutes. Reaction are stopped by vacuum filtration onto 0.3% polyethyleneimine soaked filter mats using Filtermate harvester. Scintilation cocktail is then melted onto microwave-dried filters on a hot plate and the radio activity is counted in Microbia counter.

The target in assay [6] is 5-hydroxytryptamine receptor 1E (Homo sapiens) (UniProt P28566).
Description: PDSP Primary Binding target: HTR1E - Compounds are tested at 10 uM concentration, plate are incubated at room temperature in the dark for 90 minutes. Reaction are stopped by vacuum filtration onto 0.3% polyethyleneimine soaked filter mats using Filtermate harvester. Scintilation cocktail is then melted onto microwave-dried filters on a hot plate and the radio activity is counted in Microbia counter.
Assay [7] has as its target Translocator protein (Homo sapiens) (UniProt P30536).
Description: PDSP Primary Binding target: TSPO - Compounds are tested at 10 uM concentration, plate are incubated at room temperature in the dark for 90 minutes. Reaction are stopped by vacuum filtration onto 0.3% polyethyleneimine soaked filter mats using Filtermate harvester. Scintilation cocktail is then melted onto microwave-dried filters on a hot plate and the radio activity is counted in Microbia counter.
Assay [8] has as its target Delta-type opioid receptor (Homo sapiens) (UniProt P41143).
Description: PDSP Primary Binding target: OPRD1 - Compounds are tested at 10 uM concentration, plate are incubated at room temperature in the dark for 90 minutes. Reaction are stopped by vacuum filtration onto 0.3% polyethyleneimine soaked filter mats using Filtermate harvester. Scintilation cocktail is then melted onto microwave-dried filters on a hot plate and the radio activity is counted in Microbia counter.
Assay [9] has as its target D(1B) dopamine receptor (Homo sapiens) (UniProt P21918).
Description: PDSP Primary Binding target: DRD5 - Compounds are tested at 10 uM concentration, plate are incubated at room temperature in the dark for 90 minutes. Reaction are stopped by vacuum filtration onto 0.3% polyethyleneimine soaked filter mats using Filtermate harvester. Scintilation cocktail is then melted onto microwave-dried filters on a hot plate and the radio activity is counted in Microbia counter.
In assay [10] the target is D(2) dopamine receptor (Homo sapiens) (UniProt P14416).
Description: PDSP Primary Binding target: DRD2 - Compounds are tested at 10 uM concentration, plate are incubated at room temperature in the dark for 90 minutes. Reaction are stopped by vacuum filtration onto 0.3% polyethyleneimine soaked filter mats using Filtermate harvester. Scintilation cocktail is then melted onto microwave-dried filters on a hot plate and the radio activity is counted in Microbia counter.
In assay [11] the target is 5-hydroxytryptamine receptor 1B (Homo sapiens) (UniProt P28222).
Description: PDSP Primary Binding target: HTR1B - Compounds are tested at 10 uM concentration, plate are incubated at room temperature in the dark for 90 minutes. Reaction are stopped by vacuum filtration onto 0.3% polyethyleneimine soaked filter mats using Filtermate harvester. Scintilation cocktail is then melted onto microwave-dried filters on a hot plate and the radio activity is counted in Microbia counter.
The target of assay [12] is Sigma intracellular receptor 2 (Homo sapiens) (UniProt Q5BJF2).
Description: PDSP Primary Binding target: TMEM97 - Compounds are tested at 10 uM concentration, plate are incubated at room temperature in the dark for 90 minutes. Reaction are stopped by vacuum filtration onto 0.3% polyethyleneimine soaked filter mats using Filtermate harvester. Scintilation cocktail is then melted onto microwave-dried filters on a hot plate and the radio activity is counted in Microbia counter.
Assay [13] deals with Sigma non-opioid intracellular receptor 1 (Homo sapiens) (UniProt Q99720).
Description: PDSP Primary Binding target: SIGMAR1 - Compounds are tested at 10 uM concentration, plate are incubated at room temperature in the dark for 90 minutes. Reaction are stopped by vacuum filtration onto 0.3% polyethyleneimine soaked filter mats using Filtermate harvester. Scintilation cocktail is then melted onto microwave-dried filters on a hot plate and the radio activity is counted in Microbia counter.
Assay [14] deals with Histamine H3 receptor (Homo sapiens) (UniProt Q9Y5N1).
Description: PDSP Primary Binding target: HRH3 - Compounds are tested at 10 uM concentration, plate are incubated at room temperature in the dark for 90 minutes. Reaction are stopped by vacuum filtration onto 0.3% polyethyleneimine soaked filter mats using Filtermate harvester. Scintilation cocktail is then melted onto microwave-dried filters on a hot plate and the radio activity is counted in Microbia counter.
Assay [15] deals with T3, Alpha-2C adrenergic receptor (Homo sapiens) (UniProt P18825).
T3 sequence (whole entry): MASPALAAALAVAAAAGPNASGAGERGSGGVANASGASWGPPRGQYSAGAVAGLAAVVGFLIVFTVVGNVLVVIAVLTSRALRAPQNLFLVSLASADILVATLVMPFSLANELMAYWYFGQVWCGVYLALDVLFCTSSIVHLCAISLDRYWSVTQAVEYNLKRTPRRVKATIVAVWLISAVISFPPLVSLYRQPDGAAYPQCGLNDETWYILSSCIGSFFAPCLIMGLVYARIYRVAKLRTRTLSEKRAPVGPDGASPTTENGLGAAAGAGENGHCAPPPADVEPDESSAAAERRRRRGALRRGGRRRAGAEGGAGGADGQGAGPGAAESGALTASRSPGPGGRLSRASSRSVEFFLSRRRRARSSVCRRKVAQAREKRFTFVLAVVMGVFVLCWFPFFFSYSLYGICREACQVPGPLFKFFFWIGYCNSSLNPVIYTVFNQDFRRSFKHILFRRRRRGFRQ
Description: PDSP Primary Binding target: ADRA2C - Compounds are tested at 10 uM concentration, plate are incubated at room temperature in the dark for 90 minutes. Reaction are stopped by vacuum filtration onto 0.3% polyethyleneimine soaked filter mats using Filtermate harvester. Scintilation cocktail is then melted onto microwave-dried filters on a hot plate and the radio activity is counted in Microbia counter.

Assay [16] concerns the target 5-hydroxytryptamine receptor 7 (Homo sapiens) (UniProt P34969).
Description: PDSP Primary Binding target: HTR7 - Compounds are tested at 10 uM concentration, plate are incubated at room temperature in the dark for 90 minutes. Reaction are stopped by vacuum filtration onto 0.3% polyethyleneimine soaked filter mats using Filtermate harvester. Scintilation cocktail is then melted onto microwave-dried filters on a hot plate and the radio activity is counted in Microbia counter.
Assay [17] has as its target Sodium-dependent serotonin transporter (Homo sapiens) (UniProt P31645).
Description: PDSP Primary Binding target: SLC6A4 - Compounds are tested at 10 uM concentration, plate are incubated at room temperature in the dark for 90 minutes. Reaction are stopped by vacuum filtration onto 0.3% polyethyleneimine soaked filter mats using Filtermate harvester. Scintilation cocktail is then melted onto microwave-dried filters on a hot plate and the radio activity is counted in Microbia counter.
Assay [18] concerns the target T4, Muscarinic acetylcholine receptor M2 (Homo sapiens) (UniProt P08172).
T4 sequence (whole entry): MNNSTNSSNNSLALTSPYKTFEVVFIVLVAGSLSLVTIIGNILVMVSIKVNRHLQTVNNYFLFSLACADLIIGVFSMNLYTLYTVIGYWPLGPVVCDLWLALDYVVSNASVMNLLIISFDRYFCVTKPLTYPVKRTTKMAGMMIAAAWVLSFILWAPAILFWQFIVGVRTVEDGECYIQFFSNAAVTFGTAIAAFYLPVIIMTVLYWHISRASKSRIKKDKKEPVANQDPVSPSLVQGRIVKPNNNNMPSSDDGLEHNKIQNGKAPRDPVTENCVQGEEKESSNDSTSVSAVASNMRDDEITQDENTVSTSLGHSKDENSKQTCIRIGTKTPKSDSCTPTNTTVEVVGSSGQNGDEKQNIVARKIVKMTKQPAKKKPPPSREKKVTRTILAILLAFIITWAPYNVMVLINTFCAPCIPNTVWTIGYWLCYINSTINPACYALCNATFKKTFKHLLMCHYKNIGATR
Description: PDSP Primary Binding target: CHRM2 - Compounds are tested at 10 uM concentration, plate are incubated at room temperature in the dark for 90 minutes. Reaction are stopped by vacuum filtration onto 0.3% polyethyleneimine soaked filter mats using Filtermate harvester. Scintilation cocktail is then melted onto microwave-dried filters on a hot plate and the radio activity is counted in Microbia counter.

Assay [19] has as its target Kappa-type opioid receptor (Homo sapiens) (UniProt P41145).
Description: PDSP Primary Binding target: OPRK1 - Compounds are tested at 10 uM concentration, plate are incubated at room temperature in the dark for 90 minutes. Reaction are stopped by vacuum filtration onto 0.3% polyethyleneimine soaked filter mats using Filtermate harvester. Scintilation cocktail is then melted onto microwave-dried filters on a hot plate and the radio activity is counted in Microbia counter.
In assay [20] the target is Beta-1 adrenergic receptor (Homo sapiens) (UniProt P08588).
Description: PDSP Primary Binding target: ADRB1 - Compounds are tested at 10 uM concentration, plate are incubated at room temperature in the dark for 90 minutes. Reaction are stopped by vacuum filtration onto 0.3% polyethyleneimine soaked filter mats using Filtermate harvester. Scintilation cocktail is then melted onto microwave-dried filters on a hot plate and the radio activity is counted in Microbia counter.

SMILES strings stand for the structures.

Chain of 5-hydroxytryptamine receptor 7 (Homo sapiens) (P34969 whole entry): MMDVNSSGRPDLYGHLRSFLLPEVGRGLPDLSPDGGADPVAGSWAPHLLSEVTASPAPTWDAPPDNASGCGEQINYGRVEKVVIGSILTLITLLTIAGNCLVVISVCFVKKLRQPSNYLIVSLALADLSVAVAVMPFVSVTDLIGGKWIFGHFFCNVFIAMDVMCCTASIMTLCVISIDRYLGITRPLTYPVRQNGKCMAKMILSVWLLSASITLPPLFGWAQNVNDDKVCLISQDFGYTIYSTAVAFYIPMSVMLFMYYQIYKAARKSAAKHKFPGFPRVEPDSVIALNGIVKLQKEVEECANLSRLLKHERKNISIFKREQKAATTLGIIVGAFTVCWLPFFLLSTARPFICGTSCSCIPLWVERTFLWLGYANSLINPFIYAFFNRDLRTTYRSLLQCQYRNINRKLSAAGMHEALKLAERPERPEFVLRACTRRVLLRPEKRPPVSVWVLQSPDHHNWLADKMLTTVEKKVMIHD
Chain of D(1B) dopamine receptor (Homo sapiens) (P21918 whole entry): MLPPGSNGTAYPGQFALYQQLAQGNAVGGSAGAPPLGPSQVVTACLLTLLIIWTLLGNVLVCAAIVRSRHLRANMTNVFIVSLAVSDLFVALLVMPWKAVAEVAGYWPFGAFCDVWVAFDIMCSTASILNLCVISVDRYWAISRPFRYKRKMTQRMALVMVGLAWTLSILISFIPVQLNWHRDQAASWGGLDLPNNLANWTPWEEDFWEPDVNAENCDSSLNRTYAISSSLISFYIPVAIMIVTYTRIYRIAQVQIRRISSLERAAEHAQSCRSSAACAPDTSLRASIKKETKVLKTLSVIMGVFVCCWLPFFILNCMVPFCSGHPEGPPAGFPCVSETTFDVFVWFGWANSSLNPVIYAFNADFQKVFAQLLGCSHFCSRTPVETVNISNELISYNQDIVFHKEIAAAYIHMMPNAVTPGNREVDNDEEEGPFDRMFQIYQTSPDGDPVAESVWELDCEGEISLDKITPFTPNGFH
Chain of D(1A) dopamine receptor (Homo sapiens) (P21728 whole entry): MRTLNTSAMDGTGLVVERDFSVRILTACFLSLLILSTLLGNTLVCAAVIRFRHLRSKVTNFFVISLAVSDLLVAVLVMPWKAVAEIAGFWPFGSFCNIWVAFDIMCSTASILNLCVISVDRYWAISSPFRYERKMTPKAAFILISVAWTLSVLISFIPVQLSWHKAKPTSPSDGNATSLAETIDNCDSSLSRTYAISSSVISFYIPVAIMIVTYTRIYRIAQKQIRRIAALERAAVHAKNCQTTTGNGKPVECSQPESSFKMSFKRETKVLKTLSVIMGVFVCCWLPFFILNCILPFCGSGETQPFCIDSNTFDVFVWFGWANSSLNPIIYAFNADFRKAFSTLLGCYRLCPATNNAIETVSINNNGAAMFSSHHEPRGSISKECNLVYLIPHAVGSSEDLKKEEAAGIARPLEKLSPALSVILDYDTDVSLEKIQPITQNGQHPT
Chain of 5-hydroxytryptamine receptor 1B (Homo sapiens) (P28222 whole entry): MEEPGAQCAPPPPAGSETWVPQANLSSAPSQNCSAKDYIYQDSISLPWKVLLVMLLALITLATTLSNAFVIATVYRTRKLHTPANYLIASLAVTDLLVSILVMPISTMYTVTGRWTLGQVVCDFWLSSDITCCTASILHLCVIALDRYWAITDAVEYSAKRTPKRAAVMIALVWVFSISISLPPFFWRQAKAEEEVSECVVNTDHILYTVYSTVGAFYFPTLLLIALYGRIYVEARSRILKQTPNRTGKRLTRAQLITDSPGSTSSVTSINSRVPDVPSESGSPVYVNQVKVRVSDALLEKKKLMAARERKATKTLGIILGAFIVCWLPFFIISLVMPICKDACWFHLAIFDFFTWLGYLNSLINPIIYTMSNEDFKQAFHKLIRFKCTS
Chain of D(2) dopamine receptor (Homo sapiens) (P14416 whole entry): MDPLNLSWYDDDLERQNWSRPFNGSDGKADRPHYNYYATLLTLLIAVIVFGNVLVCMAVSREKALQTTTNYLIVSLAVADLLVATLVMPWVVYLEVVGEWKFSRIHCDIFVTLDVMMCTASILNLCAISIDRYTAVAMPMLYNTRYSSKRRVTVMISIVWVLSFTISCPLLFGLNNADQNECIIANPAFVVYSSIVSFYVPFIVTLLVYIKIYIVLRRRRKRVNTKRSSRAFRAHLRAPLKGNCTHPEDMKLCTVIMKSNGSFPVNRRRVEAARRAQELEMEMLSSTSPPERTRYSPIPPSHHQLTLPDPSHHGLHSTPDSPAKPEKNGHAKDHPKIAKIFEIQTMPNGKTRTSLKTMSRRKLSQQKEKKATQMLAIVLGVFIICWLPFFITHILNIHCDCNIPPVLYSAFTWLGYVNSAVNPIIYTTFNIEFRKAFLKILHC
Chain of Histamine H3 receptor (Homo sapiens) (Q9Y5N1 whole entry): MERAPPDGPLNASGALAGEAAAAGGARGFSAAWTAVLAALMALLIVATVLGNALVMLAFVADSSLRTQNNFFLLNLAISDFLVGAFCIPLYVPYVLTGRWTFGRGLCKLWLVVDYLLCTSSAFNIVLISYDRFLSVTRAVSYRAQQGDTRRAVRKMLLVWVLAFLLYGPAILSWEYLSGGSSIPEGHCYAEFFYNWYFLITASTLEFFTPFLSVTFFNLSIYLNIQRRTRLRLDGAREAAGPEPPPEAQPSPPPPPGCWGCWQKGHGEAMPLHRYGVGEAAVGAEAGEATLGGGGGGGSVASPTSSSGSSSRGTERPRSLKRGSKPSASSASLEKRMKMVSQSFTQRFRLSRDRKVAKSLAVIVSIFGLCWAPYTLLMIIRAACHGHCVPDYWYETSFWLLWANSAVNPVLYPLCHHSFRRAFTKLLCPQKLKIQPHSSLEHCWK
Chain of Delta-type opioid receptor (Homo sapiens) (P41143 whole entry): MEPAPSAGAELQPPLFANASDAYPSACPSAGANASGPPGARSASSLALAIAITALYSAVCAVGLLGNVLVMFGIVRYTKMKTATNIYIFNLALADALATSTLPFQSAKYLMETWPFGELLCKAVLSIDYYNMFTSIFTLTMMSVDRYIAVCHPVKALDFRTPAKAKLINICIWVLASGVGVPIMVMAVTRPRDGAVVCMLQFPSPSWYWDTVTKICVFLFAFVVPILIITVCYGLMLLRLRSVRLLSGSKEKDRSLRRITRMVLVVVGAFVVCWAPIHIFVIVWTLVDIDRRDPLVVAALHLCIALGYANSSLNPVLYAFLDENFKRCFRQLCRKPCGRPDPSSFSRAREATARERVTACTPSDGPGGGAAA
Chain of Translocator protein (Homo sapiens) (P30536 whole entry): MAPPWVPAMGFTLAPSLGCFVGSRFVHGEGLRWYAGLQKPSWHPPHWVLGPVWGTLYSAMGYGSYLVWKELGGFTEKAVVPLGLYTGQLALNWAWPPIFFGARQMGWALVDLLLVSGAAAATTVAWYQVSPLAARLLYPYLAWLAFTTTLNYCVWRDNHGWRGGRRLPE
Chain of 5-hydroxytryptamine receptor 2A (Homo sapiens) (P28223 whole entry): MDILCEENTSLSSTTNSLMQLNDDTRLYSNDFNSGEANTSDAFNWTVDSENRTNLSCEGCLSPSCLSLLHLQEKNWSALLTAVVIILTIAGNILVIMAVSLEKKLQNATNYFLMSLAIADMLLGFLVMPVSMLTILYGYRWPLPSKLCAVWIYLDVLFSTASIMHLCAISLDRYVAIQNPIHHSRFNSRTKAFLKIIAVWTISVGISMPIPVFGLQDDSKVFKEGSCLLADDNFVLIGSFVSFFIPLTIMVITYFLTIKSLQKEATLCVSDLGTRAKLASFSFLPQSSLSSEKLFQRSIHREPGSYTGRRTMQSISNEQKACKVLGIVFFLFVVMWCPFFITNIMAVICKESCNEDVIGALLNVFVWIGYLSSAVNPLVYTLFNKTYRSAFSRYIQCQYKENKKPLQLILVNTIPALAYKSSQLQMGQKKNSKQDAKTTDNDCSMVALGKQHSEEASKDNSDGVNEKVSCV
Chain of 5-hydroxytryptamine receptor 6 (Homo sapiens) (P50406 whole entry): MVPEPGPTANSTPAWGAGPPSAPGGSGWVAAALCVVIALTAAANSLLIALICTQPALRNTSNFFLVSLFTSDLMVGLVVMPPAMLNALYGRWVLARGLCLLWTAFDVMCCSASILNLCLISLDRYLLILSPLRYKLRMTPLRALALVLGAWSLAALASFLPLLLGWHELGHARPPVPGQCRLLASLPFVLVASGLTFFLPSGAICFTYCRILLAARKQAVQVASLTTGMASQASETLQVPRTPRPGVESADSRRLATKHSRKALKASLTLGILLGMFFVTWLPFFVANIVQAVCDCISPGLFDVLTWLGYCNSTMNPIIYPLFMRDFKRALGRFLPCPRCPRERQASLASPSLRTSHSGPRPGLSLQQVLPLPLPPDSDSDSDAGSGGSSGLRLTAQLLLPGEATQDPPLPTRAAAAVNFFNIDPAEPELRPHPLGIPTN
Chain of Kappa-type opioid receptor (Homo sapiens) (P41145 whole entry): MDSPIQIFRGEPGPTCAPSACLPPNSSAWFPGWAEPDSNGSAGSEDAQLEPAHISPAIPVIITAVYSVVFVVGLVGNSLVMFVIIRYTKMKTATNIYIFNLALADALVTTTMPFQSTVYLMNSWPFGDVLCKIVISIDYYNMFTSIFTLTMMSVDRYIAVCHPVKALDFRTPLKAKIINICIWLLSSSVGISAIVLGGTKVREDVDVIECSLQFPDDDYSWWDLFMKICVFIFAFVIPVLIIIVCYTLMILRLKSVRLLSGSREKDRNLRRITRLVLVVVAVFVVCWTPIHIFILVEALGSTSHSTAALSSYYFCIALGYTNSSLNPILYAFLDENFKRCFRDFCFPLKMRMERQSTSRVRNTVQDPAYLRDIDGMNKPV
Chain of Sigma intracellular receptor 2 (Homo sapiens) (Q5BJF2 whole entry): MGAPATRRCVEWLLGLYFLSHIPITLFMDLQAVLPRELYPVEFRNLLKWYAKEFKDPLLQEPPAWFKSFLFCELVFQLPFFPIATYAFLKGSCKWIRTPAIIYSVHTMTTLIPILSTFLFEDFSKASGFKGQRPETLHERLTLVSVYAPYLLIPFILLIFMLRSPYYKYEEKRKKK
Chain of Sigma non-opioid intracellular receptor 1 (Homo sapiens) (Q99720 whole entry): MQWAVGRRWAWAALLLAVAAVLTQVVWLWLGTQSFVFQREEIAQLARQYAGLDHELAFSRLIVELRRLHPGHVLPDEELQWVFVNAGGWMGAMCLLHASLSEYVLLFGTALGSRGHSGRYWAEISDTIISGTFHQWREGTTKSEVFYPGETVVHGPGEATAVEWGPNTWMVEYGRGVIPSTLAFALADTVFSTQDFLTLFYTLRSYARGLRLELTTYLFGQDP

`CN1CCCC(n2nc(Cc3ccc(Cl)cc3)c3ccccc3c2=O)CC1` (configuration not stated): the inhibition in [1] was 57.1%; in assay [2], 74.7%; in [3] it was 96.7%; in [4], 96.4%; in assay [5], 87.7%; in [6] it was 57.6%. Besides, the inhibition in assay [7] was 12.9%; in [8], 24.1%; in [9], 24.1%; in [10] it was 79.1%; in assay [11], 66.5%; in assay [12], 97%. Also, the inhibition in assay [13] is 91.9%; in assay [14], 28.5%; in [15], 64.5%; in assay [16] it was 80.4%; in assay [17], 19.8%; in [18], 36.1%.

For the compound `Cc1cc([C@@H](C)Nc2cccc(-c3cc(C)c(C(=O)N[C@@H](C)C(=O)O)c(C)c3)c2)ccc1Cl`, the inhibition in assay [1] is 14%; in assay [2], -2.64%; in [3], 5.15%; in assay [5], 11.3%; in [6] it was 5.92%; in assay [7], 62.7%. Also, the inhibition is 35.9% in assay [8]; 5.13% in assay [9]; 7.32% in assay [10]; 12.1% in [11]; 20% in assay [13]; 10% in assay [14]. The inhibition in assay [15] was -1.32%; in assay [16], 2.27%; in [17] it was -8.16%; in [19] it was 0.51%; in assay [18], 2.88%.

Consider `O=c1ccc2ccc(OCCCCN3CCN(c4cccc5sccc45)CC3)cc2[nH]1`, for which the inhibition in [1] was 82.6%; in [2], 101%; in assay [3], 97.1%; in assay [4], 81.9%; in assay [5], 100%; in assay [6], 92.3%. Besides, the inhibition in assay [7] was -2.98%; in assay [8] it was -1.82%; in [9], 88.1%; in [10] it was 104%; in assay [11] it was 99%; in assay [12], 95.6%. In addition, the inhibition was 54.5% in [14]; 104% in [15]; 101% in assay [16]; 98.2% in assay [17]; 13.9% in assay [19]; -3.44% in [18].

Consider `OCc1cc(C(O)CNCCCCCCOCCCCc2ccccc2)ccc1O` (configuration not stated), for which the inhibition in assay [1] is 6.76%; in [2] it was 18%; in [3], 78.2%; in [4], 4.21%; in assay [5], 77%; in assay [6] it was 17.4%. In addition, the inhibition is -0.39% in assay [7]; 5.6% in assay [8]; 19.6% in assay [9]; 10.9% in [10]; 51.1% in assay [11]; 102% in assay [12]. The inhibition in assay [14] was 23.3%; in [15] it was 45.6%; in [16], 97.4%; in assay [17] it was 91.4%; in assay [19], 9.07%; in assay [18], 3.27%.

Consider `COc1ccccc1N1CCN(CCCCNC(=O)c2ccc3ccccc3c2)CC1`, for which the inhibition in assay [1] is 73.4%; in [2], 37.4%; in assay [3], -1.42%; in assay [4] it was 0.02%; in [5], 98.8%; in assay [6] it was 27.8%. Besides, the inhibition in [7] was 78.8%; in [8], -2.88%; in [10], 91.8%; in [11] it was 93.2%; in assay [12], 96.4%; in [13], 90.4%. Moreover, the inhibition in [14] is 49.6%; in [15], 111%; in [16] it was 102%; in [17], 83.7%; in [19], 35.6%; in assay [18], 7.22%.

Consider `N[C@H](C(=O)O)c1ccc(C(=O)O)c(C(=O)O)c1`, for which the inhibition in assay [2] is 4.51%; in assay [3] it was 5.29%; in assay [20], -5.64%; in [4], 1.09%; in assay [6], -8.66%; in assay [7], 13.8%. For the same compound, the inhibition in assay [8] is 13.1%; in [10] it was 13.7%; in [11], -2.1%; in assay [13], 6.26%; in assay [14], 11.6%; in [15], -9.35%. In addition, the results for the inhibition in assay [17], in [19] and in assay [18] were 69.3%, 4.93% and 45%, respectively.

`CCC[C@H](Oc1cc(C)c(-n2cc(C(F)(F)F)cn2)c(C)c1)c1ccc(C(=O)NCCC(=O)O)cc1`: the inhibition is 20.2% in assay [1]; -2.41% in assay [2]; 4.78% in [3]; 8.94% in assay [5]; 44% in assay [6]; 28.7% in assay [7]. Also, the inhibition in [8] was 27%; in [9], 11.7%; in assay [10], 8.21%; in assay [11], 12.2%; in [12], 2.23%; in assay [13], 1.84%. In addition, the inhibition in assay [14] is 11.1%; in assay [15], 5.06%; in assay [16] it was -2.87%; in assay [17] it was -5.66%; in [19] it was 40.7%; in assay [18] it was -6.26%.

The values are drawn from ChEMBL document CHEMBL5442219.
